Entries after “also recorded” stand apart in the source; their conditions may differ.
What was measured:
DBA mice = conditions: cited from earlier work; for seizure-induced respiratory failure and death in DBA mice: dose-dependent manner
[1] = in vivo; cited from earlier work
[2] = system: DBA/1 mice (audiogenic seizures, seizure-induced respiratory arrest); experiment: Reversal of FFA's anticonvulsant and S-IRA blocking effects by selective 5-HT receptor antagonists in DBA/1 mice; format: in vivo, mouse; conditions: for reversal of FFA's S-IRA blocking effect: 30 min before AGSz; for reversal of S-IRA blocking effect of FFA (reduction in S-IRA incidence) / reversal of anticonvulsant effect of FFA (seizure severity, incidence of tonic seizures): antagonist dose not stated
[3] = oral administration; cited from earlier work
5-HT2B receptor = 5-HT2B receptor (Homo sapiens, UniProt P41595); conditions: cited from earlier work
[4] = system: DBA/1 mice (audiogenic seizures, seizure-induced respiratory arrest); experiment: Dose- and time-dependent effects of FFA on audiogenic seizures (AGSz) and S-IRA in DBA/1 mice; format: in vivo, mouse
From the text: These studies involved age matched (<80 days) male DBA/1 mice obtained from ENVIGO. […] Starting at postnatal day 23-25, the mice were primed and tested for consistent susceptibility to AGSz and S-IRA by presenting an intense acoustic stimulus, as described previously.
The typical seizure semiology in the DBA/1 mice begins with a wild running phase, followed by clonic-tonic seizures and then tonic hind-limb extension that immediately leads to S-IRA during post-ictal behavioral depression (PID). The onset of S-IRA was visually determined by the occurrence of respiratory failure following loss of the righting reflex, relaxation of the pinnae, and then a generalized loss of muscle tone. These behaviors are reliable indicators of imminent sudden death in DBA mice. […] The mice were placed in a supine position, and a polyethylene tube (4.4 mm external diameter) connected to the outflow of a rodent respirator (Harvard Apparatus 680), pumping one cc of room air at 200 strokes/min, was the placed over the nostrils, which produced observable displacement of the chest. […] The mice were monitored until they regained the righting reflex and then returned to their home cage. Video recordings of seizure behaviors and recovery were made for off-line evaluation and analysis, including the duration of PID, as indicated by time from muscle tone loss to return of the righting reflex.
The videos of seizure behaviors were analyzed visually, and the incidence (frequency) of AGSz, seizure severity, and incidence (frequency) of S-IRA following drug treatment were compared statistically to vehicle controls using the Chi-square, Mann-Whitney U or paired samples t-test with SPSS software. The ED50 was calculated using SigmaPlot 13 and Microsoft® Excel. The experimental protocols used in these studies were approved by the Laboratory Animal Care and Use Committee of Southern Illinois University School of Medicine, which are in accordance with National Institutes of Health guidelines for the care and use of laboratory animals. Measures to minimize animal usage as well as pain and discomfort were included in these procedures.
The incidence of S-IRA and tonic seizures were analyzed Chi-square test with a significance level set at p<0.05.

5-HT2C receptor = target: T1, 5-HT2C receptor (Homo sapiens, UniProt P28335); conditions: cited from earlier work
T1 sequence (P28335 33-458): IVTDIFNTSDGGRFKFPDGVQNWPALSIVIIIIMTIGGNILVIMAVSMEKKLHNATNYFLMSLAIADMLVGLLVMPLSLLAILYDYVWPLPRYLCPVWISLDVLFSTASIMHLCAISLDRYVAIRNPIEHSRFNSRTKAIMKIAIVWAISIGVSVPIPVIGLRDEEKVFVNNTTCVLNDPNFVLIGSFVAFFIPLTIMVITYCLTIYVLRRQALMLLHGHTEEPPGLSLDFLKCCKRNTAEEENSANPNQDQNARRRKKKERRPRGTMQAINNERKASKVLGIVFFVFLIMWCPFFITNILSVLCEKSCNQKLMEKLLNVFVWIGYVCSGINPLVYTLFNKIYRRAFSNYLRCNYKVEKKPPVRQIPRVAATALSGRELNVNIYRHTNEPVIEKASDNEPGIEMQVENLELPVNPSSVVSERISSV

[5] = system: patients with Dravet syndrome; conditions: add-on (adjunctive) agent; cited from earlier work

Sequence of 5-HT2B receptor (P41595 whole entry): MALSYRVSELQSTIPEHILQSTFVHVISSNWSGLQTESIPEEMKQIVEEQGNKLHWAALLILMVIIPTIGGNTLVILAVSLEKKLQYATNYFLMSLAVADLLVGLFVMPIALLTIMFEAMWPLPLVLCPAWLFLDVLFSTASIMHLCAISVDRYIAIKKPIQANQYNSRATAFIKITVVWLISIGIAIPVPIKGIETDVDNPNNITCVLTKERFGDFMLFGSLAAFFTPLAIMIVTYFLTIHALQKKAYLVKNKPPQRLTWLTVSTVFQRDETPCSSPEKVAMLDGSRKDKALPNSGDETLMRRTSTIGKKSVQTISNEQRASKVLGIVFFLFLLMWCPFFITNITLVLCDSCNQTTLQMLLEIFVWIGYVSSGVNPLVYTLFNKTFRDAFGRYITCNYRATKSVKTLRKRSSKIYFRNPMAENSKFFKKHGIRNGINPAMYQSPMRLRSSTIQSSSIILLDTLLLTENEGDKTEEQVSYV

CNCCC(Oc1ccc(C(F)(F)F)cc1)c1ccccc1 (stereo not drawn) [fluoxetine]
S-IRA in DBA/1 mice (DBA mice; acting via 5-HT3 receptors): can prevent | seizure-induced respiratory failure and death in DBA mice (DBA mice): prevent

CCC1(c2ccccc2)C(=O)NC(=O)NC1=O [Phenobarbital]
half-life [1]: 92 h

CNCC[C@@H](Oc1ccccc1C)c1ccccc1 [atomoxetine]
seizure-induced respiratory failure and death in DBA mice (DBA mice): prevent

Cc1nc2sccn2c(=O)c1CCN1CCC(=C(c2ccc(F)cc2)c2ccc(F)cc2)CC1 [Ritanserin]
reversal of FFA's anticonvulsant effect against the severity of AGSz ([2]; Ritanserin 20 mg/kg): able to reverse; also recorded: block | reversal of FFA's anticonvulsant effect against the severity of AGSz ([2]; Ritanserin 10-20 mg/kg): able to reverse | reversal of FFA's S-IRA blocking effect ([2]; Ritanserin 10-20 mg/kg): not its S-IRA blocking effect | reversal of S-IRA blocking effect of FFA (reduction in S-IRA incidence) [2]: reversed | reversal of anticonvulsant effect of FFA (seizure severity, incidence of tonic seizures) [2]: reversed

COc1ccccc1N1CCN(CCN(C(=O)C2CCCCC2)c2ccccn2)CC1 [WAY100635]
reversal of FFA's effect (AGSz severity / S-IRA) ([2]; WAY100635 0.1-15 mg/kg): not effective at any dose tested

CN[C@H]1CC[C@@H](c2ccc(Cl)c(Cl)c2)c2ccccc21 [sertraline]
seizure-induced respiratory failure and death in DBA mice (DBA mice): prevent

COc1ccc(C(CN(C)C)C2(O)CCCCC2)cc1 (stereo not drawn) [venlafaxine]
seizure-induced respiratory failure and death in DBA mice (DBA mice): prevent

CC[C@@H](c1cccc(O)c1)[C@@H](C)CN(C)C [Tapentadol]
duration of analgesia [3]: 4 to 6 h | onset of analgesia [3]: ≤ 32 min

COCCCC/C(=N\OCCN)c1ccc(C(F)(F)F)cc1 [fluvoxamine]
seizure-induced respiratory failure and death in DBA mice (DBA mice): prevent

CCNC(C)Cc1cccc(C(F)(F)F)c1 (racemic) [FFA, 3-trifluoromethyl-N-ethylamphetamine]
affinity for 5-HT2B receptor (5-HT2B receptor): high affinity | incidence of S-IRA ([4]; FFA 5 mg/kg i.p.): not affected | incidence of S-IRA ([4]; FFA 10 mg/kg i.p., starting at 8 h, vs saline treated controls): significant reduction | incidence of S-IRA ([4]; FFA 15 mg/kg (n=73) vs saline (n=38), FIGS. 1C-1D): reduction | incidence of S-IRA ([4]; FFA 15 mg/kg i.p., starting at 8 h, vs saline treated controls): significant reduction | return of tonic AGSz and S-IRA susceptibility (time after FFA) ([4]; FFA 20 mg/kg): approximately 48 h | incidence of S-IRA ([4]; FFA 20 mg/kg i.p., starting at 8 h, vs saline treated controls): significant reduction | effect on S-IRA ([4]; FFA 10-20 mg/kg): blocking effect | mice with significant reduction in the incidence of S-IRA ([4]; FFA 10-20 mg/kg, 8 h time point (FIG. 1B)): 100% | incidence of tonic seizures ([4]; FFA i.p., dose not stated): significantly reduced | seizure severity / AGSz susceptibility ([4]; dose- and time-dependent): significantly reduced seizure severity or blocked AGSz susceptibility | action at the 5-HT4 receptor, concluded from reversal by GR125487 ([2]; conclusion from antagonist study in DBA/1 mice): agonist | affinity for 5-HT2C receptor (5-HT2C receptor): high affinity | seizure activity (frequency and/or severity) [5]: significantly reduced

Cc1nccn1CC1CCc2c(c3ccccc3n2C)C1=O (stereo not drawn) [Ondansetron]
reversal of FFA's effect (AGSz severity / S-IRA) ([2]; Ondansetron 1-3 mg/kg): not effective at any dose tested | reversal of FFA's effect (AGSz severity / S-IRA) ([2]; Ondansetron 2-3 mg/kg): not effective at any dose tested | reversal of S-IRA blocking effect of FFA (reduction in S-IRA incidence) [2]: did not reverse | reversal of anticonvulsant effect of FFA (seizure severity, incidence of tonic seizures) [2]: did not reverse

CC1CCN(CC[C@H]2CCCN2S(=O)(=O)c2cccc(O)c2)CC1 [SB269970]
reversal of FFA's anticonvulsant effect against the severity of AGSz ([2]; SB269970 30 mg/kg and 40 mg/kg): able to reverse; also recorded: block | reversal of FFA's S-IRA blocking effect ([2]; SB269970 30 mg/kg and 40 mg/kg): not its S-IRA blocking effect | reversal of anticonvulsant effect of FFA (seizure severity, incidence of tonic seizures) [2]: reversed

Reference: patent publication US10952976B2 (priority 2018, dated 2021)
